Experimental data reported in PMC6957248 (Bioorganic & medicinal chemistry letters, 2016).

Tests used:
[1] = molecular target: T1, human TRPV1 heterologously expressed in Chinese hamster ovary (CHO) cells (Homo sapiens, UniProt Q8NER1); assay: binding competition assay with [3H]-resiniferatoxin; settings: for fold weaker binding affinity compared to 1: ratio of Ki versus compound 1
[2] = molecular target: T1, human TRPV1 heterologously expressed in Chinese hamster ovary (CHO) cells; format: cell-based; settings: for fold weaker antagonistic potency compared to 1: ratio of Ki(ant) versus compound 1

T1 sequence (Q8NER1 whole entry): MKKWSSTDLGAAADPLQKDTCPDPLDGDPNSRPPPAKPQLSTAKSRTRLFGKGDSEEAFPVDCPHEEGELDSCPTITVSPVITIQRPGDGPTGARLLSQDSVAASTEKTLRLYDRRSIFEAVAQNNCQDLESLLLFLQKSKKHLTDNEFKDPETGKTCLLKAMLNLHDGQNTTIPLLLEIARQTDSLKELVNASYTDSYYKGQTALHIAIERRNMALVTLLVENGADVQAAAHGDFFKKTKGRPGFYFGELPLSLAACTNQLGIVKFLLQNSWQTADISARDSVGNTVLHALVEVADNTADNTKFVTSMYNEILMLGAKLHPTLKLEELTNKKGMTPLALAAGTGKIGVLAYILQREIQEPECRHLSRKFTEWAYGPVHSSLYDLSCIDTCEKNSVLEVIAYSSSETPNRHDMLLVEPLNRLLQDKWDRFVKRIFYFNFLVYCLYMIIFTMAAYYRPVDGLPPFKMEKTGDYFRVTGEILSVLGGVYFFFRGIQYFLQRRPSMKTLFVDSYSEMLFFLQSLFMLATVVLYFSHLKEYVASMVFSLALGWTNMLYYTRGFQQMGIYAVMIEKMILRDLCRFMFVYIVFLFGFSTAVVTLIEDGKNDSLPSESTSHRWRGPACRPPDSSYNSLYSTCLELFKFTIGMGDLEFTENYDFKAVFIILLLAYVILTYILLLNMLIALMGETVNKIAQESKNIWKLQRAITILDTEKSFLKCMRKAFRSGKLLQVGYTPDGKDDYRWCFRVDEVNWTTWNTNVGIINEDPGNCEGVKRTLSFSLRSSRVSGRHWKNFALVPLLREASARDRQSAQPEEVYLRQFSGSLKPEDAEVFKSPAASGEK

CC1CCN(c2nc(C(F)(F)F)ccc2CCNC(=O)C(C)c2ccc(NS(C)(=O)=O)c(F)c2)CC1 (stereo not shown) [Compound 11]
fold weaker binding affinity compared to 1 [1]: 7 fold | fold weaker antagonistic potency compared to 1 [2]: 43 fold

CC1CCN(c2nc(C(F)(F)F)ccc2CNC(=O)C(C)c2ccc(CNS(C)(=O)=O)c(F)c2)CC1 (stereo not shown) [Compound 16]
fold weaker binding affinity compared to 1 [1]: 29 fold | fold weaker antagonistic potency compared to 1 [2]: 12 fold

CC1CCN(c2nc(C(F)(F)F)ccc2CNC(=O)Nc2ccc(NS(C)(=O)=O)c(F)c2)CC1 [Compound 21]
fold weaker binding affinity compared to 1 [1]: 11 fold | fold weaker antagonistic potency compared to 1 [2]: 67 fold

CC1CCN(c2nc(C(F)(F)F)ccc2CCNC(=O)Nc2ccc(NS(C)(=O)=O)c(F)c2)CC1 [Compound 22]
character of antagonism ([2]; capsaicin stimulated 45Ca2+ uptake): partial antagonist

CC1CCN(c2nc(C(F)(F)F)ccc2CNC(=O)Nc2ccc(CNS(C)(=O)=O)c(F)c2)CC1 [Compound 27]
fold increase in binding affinity compared to 21 ([1]; ratio of Ki versus compound 21): approximately 12 fold | fold increase in antagonistic potency compared to 21 ([2]; ratio of Ki(ant) versus compound 21): approximately 12 fold

Cc1cccc(N(C(=O)NCc2ccc(C(F)(F)F)nc2N2CCC(C)CC2)c2ccc(NS(C)(=O)=O)c(F)c2)c1 [Compound 42]
extent of antagonism, 15 min pre-incubation ([2]; cells incubated with compound 15 min before challenge with capsaicin): full antagonism
